The source of these data is patent US11597721B2, “Heterocyclic compounds comprising pyridine useful as modulators of IL-12, IL-23 and/or IFNα responses” (BRISTOL-MYERS SQUIBB COMPANY, priority 2018, dated 2023).

Molecules are shown by their SMILES.

The assay deals with IFNα-Induced STAT Phosphorylation. In words: IFNα-Induced STAT Phosphorylation in Human Whole Blood. The assay is classed as cell-based. Particulars: Homo sapiens, 1 h compound incubation, 1000 U/mL recombinant human IFNα A/D for 15 min, pSTAT5 in CD3 positive population, read-out: LE Human WB IFNα-Induced Stat Phosph. (IC50). From the text: IFNα-Induced STAT Phosphorylation in Human Whole Blood
The amount of pSTAT5 expression was quantitated by median fluorescence intensity after gating on the CD3 positive population.
For orientation: IC50 means the concentration at which inhibition is half-maximal. Consider `[2H]C([2H])([2H])NC(=O)c1nnc(NC(=O)OC)cc1Nc1nccc(-c2noc(C)n2)c1OC` [Example 56, methyl N-(5-{[3-methoxy-4-(5-methyl-1,2,4-oxadiazol-3-yl)pyridin-2-yl]amino}-6-[(^2H3)methylcarbamoyl]pyridazin-3-yl)carbamate], for which the IC50 is 1340 nM. The same measure for `[2H]C([2H])([2H])NC(=O)c1nnc(Nc2cc(C)ccn2)cc1Nc1nccc(-c2noc(COC)n2)c1OC` [Example 62, 4-({3-methoxy-4-[5-(methoxymethyl)-1,2,4-oxadiazol-3-yl]pyridin-2-yl}amino)-N—(^2H3)methyl-6-[(4-methylpyridin-2-yl)amino]pyridazine-3-carboxamide]: 1130 nM; for `[2H]C([2H])([2H])NC(=O)c1nnc(NC(=O)CC2COC2)cc1Nc1nccc(-c2noc(COC)n2)c1OC` [Example 76, 4-({3-methoxy-4-[5-(methoxymethyl)-1,2,4-oxadiazol-3-yl]pyridin-2-yl}amino)-N—(^2H3)methyl-6-[2-(oxetan-3-yl)acetamido]pyridazine-3-carboxamide]: 180 nM; for `[2H]C([2H])([2H])NC(=O)c1cnc(NC(=O)C2CC2)cc1Nc1nccc(-c2noc(COC)n2)c1OC` [Example 45, 6-cyclopropaneamido-4-({3-methoxy-4-[5-(methoxymethyl)-1,2,4-oxadiazol-3-yl]pyridin-2-yl}amino)-N—(^2H3)methylpyridine-3-carboxamide]: 10 nM.

As for `[2H]C([2H])([2H])NC(=O)c1nnc(Nc2ccc(-n3ccccc3=O)cn2)cc1Nc1nccc(-c2ncn(C)n2)c1OC` [Example 24, 4-{[3-methoxy-4-(1-methyl-1H-1,2,4-triazol-3-yl)pyridin-2-yl]amino}-N—(^2H3)methyl-6-({2-oxo-2H-[1,3′-bipyridine]-6′-yl}amino)pyridazine-3-carboxamide], the IC50 worked out at 30 nM.

Take `[2H]C([2H])([2H])NC(=O)c1nnc(Nc2cc(C)c(F)cn2)cc1Nc1nccc(-c2ncn(C)n2)c1OC` [Example 16, 6-[(5-fluoro-4-methylpyridin-2-yl)amino]-4-{[3-methoxy-4-(1-methyl-1H-1,2,4-triazol-3-yl)pyridin-2-yl]amino}-N—(^2H3)methylpyridazine-3-carboxamide]: the IC50 came out at 120 nM.

On to `[2H]C([2H])([2H])NC(=O)c1cnc(NC(=O)CC)cc1Nc1nccc(-c2noc(C)n2)c1OC` [Example 43, 4-{[3-methoxy-4-(5-methyl-1,2,4-oxadiazol-3-yl)pyridin-2-yl]amino}-N—(^2H3)methy-6-propanamidopyridine-3-carboxamide], for which the IC50 was found to be 120 nM. The value for `[2H]C([2H])([2H])NC(=O)c1nnc(NC(=O)CC)cc1Nc1nccc(-c2noc(C)n2)c1OC` [Example 81, 4-{[3-methoxy-4-(5-methyl-1,2,4-oxadiazol-3-yl)pyridin-2-yl]amino}-N—(^2H3)methyl-6-propanamidopyridazine-3-carboxamide] was 220 nM. With `[2H]C([2H])([2H])NC(=O)c1nnc(Nc2cc(C(C)(C)O)ccn2)cc1Nc1nccc(-c2noc(C)n2)c1OC` [Example 80, 6-{[4-(2-hydroxypropan-2-yl)pyridin-2-yl]amino}-4-{[3-methoxy-4-(5-methyl-1,2,4-oxadiazol-3-yl)pyridin-2-yl]amino}-N—(^2H3)methylpyridazine-3-carboxamide], the IC50 stood at 600 nM.

With `[2H]C([2H])([2H])NC(=O)c1nnc(Nc2ccn(C)n2)cc1Nc1nccc(-c2cnc(C(=O)N(C)C)cn2)c1OC` [Example 90, 4-((4-(5-(Dimethylcarbamoyl)pyrazin-2-yl)-3-methoxypyridin-2-yl)amino)-N-(methyl-d3)-6-((1-methyl-1H-pyrazol-3-yl)amino)pyridazine-3-carboxamide], the IC50 turned out to be 60 nM. The value for `[2H]C([2H])([2H])NC(=O)c1nnc(NC(=O)CC2CC2)cc1Nc1nccc(-c2noc(CN(C)S(C)(=O)=O)n2)c1OC` [Example 67, 6-(2-cyclopropylacetamido)-4-[(3-methoxy-4-{5-[(N-methylmethanesulfonamido)methyl]-1,2,4-oxadiazol-3-yl}pyridin-2-yl)amino]-N—(^2H3)methylpyridazine-3-carboxamide] was 70 nM. With `[2H]C([2H])([2H])NC(=O)c1nnc(Nc2ccc(N3CCOCC3)cn2)cc1Nc1nccc(-c2ncn(C)n2)c1OC` [Example 38, 4-{[3-methoxy-4-(1-methyl-1H-1,2,4-triazol-3-yl)pyridin-2-yl]amino}-N—(^2H3)methyl-6-{[5-(morpholin-4-yl)pyridin-2-yl]amino}pyridazine-3-carboxamide], the IC50 was 10 nM. The value for `[2H]C([2H])([2H])NC(=O)c1nnc(NC(=O)CC(C)C)cc1Nc1nccc(-c2noc(CN(C)S(C)(=O)=O)n2)c1OC` [Example 70, 4-[(3-methoxy-4-{5-[(N-methylmethanesulfonamido)methyl]-1,2,4-oxadiazol-3-yl}pyridin-2-yl)amino]-N—(^2H3)methyl-6-(3-methylbutanamido)pyridazine-3-carboxamide] was 240 nM; that for `[2H]C([2H])([2H])NC(=O)c1cnc(Nc2cc(C)ccn2)cc1Nc1nccc(-c2nnn(C)n2)c1OC` [Example 103, 4-((3-methoxy-4-(2-methyl-2H-tetrazol-5-yl)pyridin-2-yl)amino)-N-(methyl-d3)-6-((4-methylpyridin-2-yl)amino)nicotinamide] was 280 nM; that for `[2H]C([2H])([2H])NC(=O)c1nnc(NC(=O)OC)cc1Nc1nccc(-c2noc(CN3CCOCC3)n2)c1OC` [Example 53, methyl N-{5-[(3-methoxy-4-{5-[(morpholin-4-yl)methyl]-1,2,4-oxadiazol-3-yl}pyridin-2-yl)amino]-6-[(^2H3)methylcarbamoyl]pyridazin-3-yl}carbamate] was 500 nM. The value for `[2H]C([2H])([2H])NC(=O)c1nnc(NC(=O)CC)cc1Nc1nccc(-c2noc(CN3CCOCC3)n2)c1OC` [Example 65, 4-[(3-methoxy-4-{5-[(morpholin-4-yl)methyl]-1,2,4-oxadiazol-3-yl}pyridin-2-yl)amino]-N—(^2H3)methyl-6-propanamidopyridazine-3-carboxamide] was 120 nM; that for `[2H]C([2H])([2H])NC(=O)c1cnc(NC(=O)C2CC2)cc1Nc1nccc(-c2noc(C)n2)c1OC` [Example 41, 6-cyclopropaneamido-4-{[3-methoxy-4-(5-methyl-1,2,4-oxadiazol-3-yl)pyridin-2-yl]amino}-N—(^2H3)methylpyridine-3-carboxamide] was 30 nM. The value for `[2H]C([2H])([2H])NC(=O)c1nnc(Nc2ccncc2)cc1Nc1nccc(-c2ncn(C)n2)c1OC` [Example 35, 4-{[3-methoxy-4-(1-methyl-1H-1,2,4-triazol-3-yl)pyridin-2-yl]amino}-N—(^2H3)methyl-6-[(pyridin-4-yl)amino]pyridazine-3-carboxamide] was 200 nM; that for `[2H]C([2H])([2H])NC(=O)c1nnc(Nc2cc(Cl)ccn2)cc1Nc1nccc(-c2ncn(C)n2)c1OC` [Example 21, 6-[(4-chloropyridin-2-yl)amino]-4-{[3-methoxy-4-(1-methyl-1H-1,2,4-triazol-3-yl)pyridin-2-yl]amino}-N—(^2H3)methylpyridazine-3-carboxamide] was 30 nM; that for `[2H]C([2H])([2H])NC(=O)c1nnc(NC(=O)C2CC2)cc1Nc1nccc(C#N)c1OC` [Example 51, 4-[(4-cyano-3-methoxypyridin-2-yl)amino]-6-cyclopropaneamido-N—(^2H3)methylpyridazine-3-carboxamide] was over 10000 nM.

Regarding `[2H]C([2H])([2H])NC(=O)c1nnc(NC(=O)CC(C)C)cc1Nc1nccc(-c2noc(COC)n2)c1OC` [Example 68, 4-({3-methoxy-4-[5-(methoxymethyl)-1,2,4-oxadiazol-3-yl]pyridin-2-yl}amino)-N—(^2H3)methyl-6-(3-methylbutanamido)pyridazine-3-carboxamide], the 50% inhibitory concentration (IC50) was 1420 nM.

As for `[2H]C([2H])([2H])NC(=O)c1cnc(NC(=O)C2CC2)cc1Nc1nccc(-c2ccc(Cl)cn2)c1OC` [Example 86, 4-((5-Chloro-3′-methoxy-[2,4′-bipyridin]-2′-yl)amino)-6-(cyclopropanecarboxamido)-N-(methyl-d3)nicotinamide], the IC50 amounted to 480 nM.

Take `[2H]C([2H])([2H])NC(=O)c1cnc(NC(=O)C2CC2)cc1Nc1nccc(-c2noc(COCC)n2)c1OC` [Example 46, 6-cyclopropaneamido-4-({4-[5-(ethoxymethyl)-1,2,4-oxadiazol-3-yl]-3-methoxypyridin-2-yl}amino)-N—(^2H3)methylpyridine-3-carboxamide]: the IC50 worked out at 30 nM. The same measure for `[2H]C([2H])([2H])NC(=O)c1cnc(NC(=O)C2CC2)cc1Nc1nccc(-c2ccccn2)c1OC` [Example 84, 6-(Cyclopropanecarboxamido)-4-((3′-methoxy-[2,4′-bipyridin]-2′-yl)amino)-N-(methyl-d3)nicotinamide]: 80 nM; for `[2H]C([2H])([2H])NC(=O)c1nnc(NC(=O)C2CC2)cc1Nc1nccc(-c2cnc(C(=O)N(C)C)cn2)c1OC` [Example 87, 6-(Cyclopropanecarboxamido)-4-((4-(5-(dimethylcarbamoyl)pyrazin-2-yl)-3-methoxypyridin-2-yl)amino)-N-(methyl-d3)pyridazine-3-carboxamide]: 30 nM. The value for `[2H]C([2H])([2H])NC(=O)c1nnc(Nc2nnc(C)s2)cc1Nc1nccc(-c2ncn(C)n2)c1OC` [Example 20, 4-{[3-methoxy-4-(1-methyl-1H-1,2,4-triazol-3-yl)pyridin-2-yl]amino}-N—(^2H3)methyl-6-[(5-methyl-1,3,4-thiadiazol-2-yl)amino]pyridazine-3-carboxamide] was 1510 nM; that for `[2H]C([2H])([2H])NC(=O)c1nnc(Nc2cc(Cl)n(C)n2)cc1Nc1nccc(-c2cnc(C(=O)N(C)C)cn2)c1OC` [Example 92, 6-((5-Chloro-1-methyl-1H-pyrazol-3-yl)amino)-4-((4-(5-(dimethylcarbamoyl)pyrazin-2-yl)-3-methoxypyridin-2-yl)amino)-N-(methyl-d3)pyridazine-3-carboxamide] was 90 nM.
